Assay results published in US8168667B2 (Galapagos NV, priority 2006, dated 2012).
Where two headings read alike, the source gives them in different places.

Target: T1, human androgen receptor (hAR) (Homo sapiens, UniProt P10275)
T1 sequence (P10275 1-920): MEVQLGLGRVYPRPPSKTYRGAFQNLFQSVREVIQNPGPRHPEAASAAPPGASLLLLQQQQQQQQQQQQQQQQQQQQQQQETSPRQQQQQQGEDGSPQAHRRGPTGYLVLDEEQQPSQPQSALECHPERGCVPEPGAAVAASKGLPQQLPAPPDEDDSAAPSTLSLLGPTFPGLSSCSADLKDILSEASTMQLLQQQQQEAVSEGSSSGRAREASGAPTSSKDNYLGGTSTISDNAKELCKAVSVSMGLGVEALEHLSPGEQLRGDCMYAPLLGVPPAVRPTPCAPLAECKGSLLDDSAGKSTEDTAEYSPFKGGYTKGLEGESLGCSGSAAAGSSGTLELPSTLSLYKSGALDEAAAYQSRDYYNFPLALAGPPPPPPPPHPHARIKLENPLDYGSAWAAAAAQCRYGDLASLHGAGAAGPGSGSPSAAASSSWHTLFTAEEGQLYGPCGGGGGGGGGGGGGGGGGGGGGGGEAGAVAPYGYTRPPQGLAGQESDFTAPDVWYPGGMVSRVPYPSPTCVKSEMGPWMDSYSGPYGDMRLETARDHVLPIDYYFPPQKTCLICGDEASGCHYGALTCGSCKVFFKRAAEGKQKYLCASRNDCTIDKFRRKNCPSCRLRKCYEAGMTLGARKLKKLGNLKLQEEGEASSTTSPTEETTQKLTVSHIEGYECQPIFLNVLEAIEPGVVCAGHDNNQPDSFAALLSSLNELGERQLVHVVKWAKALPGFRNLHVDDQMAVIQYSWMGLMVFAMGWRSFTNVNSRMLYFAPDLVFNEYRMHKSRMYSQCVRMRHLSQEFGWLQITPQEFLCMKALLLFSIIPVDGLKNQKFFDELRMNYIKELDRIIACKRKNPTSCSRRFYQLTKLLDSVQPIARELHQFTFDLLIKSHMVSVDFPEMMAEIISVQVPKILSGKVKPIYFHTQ
Test: Functional response test: hAR transactivation (luciferase reporter) in HALP2 cells
Type: cell-based
Details: for EC50: agonism, HALP2 cells (HeLa, hAR + ARE-luciferase), 20 hours at 37° C.
Text: This test constitutes a method of identifying pure or partial agonists which mimic the effects of natural hormones, such as DHT (dihydrotestosterone) in the present case or, on the other hand, antagonists which inhibit them.
For this transactivation test, plasmids encoding a reporter gene and the human androgen receptor (hAR) are introduced together by transfection into the HeLa cell line. The reporter plasmid contains luciferase cDNA under the control of the AREs contained in the promoter sequences of the probasin gene (3xpbAREminicoll-luciferase/pGL3-puro). The expression of the reporter gene constitutes an indication of the transcriptional activity of hAR. It also encodes a protein allowing the cells expressing it to resist a treatment with puromycin. The plasmid encoding hAR contains the cDNA of hAR under the control of the Cytomegalovirus (CMV) promoter. It also encodes a protein allowing the cells expressing it to resist a treatment with neomycin. The treatment of cells with increasing amounts of potentially agonistic compounds will increase the expression of the reporter gene. To detect antagonists, on the other hand, increasing doses of test compounds are tested in the presence of […] of DHT. The expression of the reporter gene, which is constant for each dose of DHT, decreases when the concentration of the test compounds increases.
For this test, HeLa cells were obtained from the American Type Culture Collection (Rockville, Md.) and cultivated in DMEM medium containing 4.5 g/l of glucose, supplemented with Glutamax and with nonessential amino-acids and with 10% of foetal calf serum (SVF; Dominique Dutscher).
On the day before transfection, a million cells were seeded in DMEM medium without phenol red, supplemented with Glutamax and with desteroided SVF (5%) in Petri dishes. The cells were transfected with 4 μg of the puromycin resistance plasmids pcDNA3-hAR and 3xpbAREminicoll-luciferase/pGL3 using the reagent “Lipofectamine plus” (Invitrogen), following the supplier's recommendations. The day after transfection, the cells were seeded to different cell densities (10,000 to 100,000 cellules per Petri dish). Two days after transfection, the transfected cells were selected in DMEM medium without phenol red, supplemented with Glutamax and with desteroided SVF (5%) containing 400 μg/mL of G418 (Invitrogen) and 150 ng/mL of puromycin (Sigma). The culture medium was renewed weekly until resistant clones appeared. The resistant clones were removed and amplified before being tested for their functional response. […]
The functional response test was conducted on 96-well plates. The HALP2 cells were seeded (30,000 cells per well) 24 hours before the phase of stimulation in DMEM medium containing 4.5 g/L of glucose, supplemented with Glutamax and nonessential amino-acids, and with desteroided SVF (5%).
On the day of stimulation, the seeding medium was replaced by DMEM medium without phenol red, supplemented with Glutamax and with desteroided SVF (5%). […] The cells were placed in contact with the compounds for 20 hours at 37° C.

[1] = antagonism, concentration which increases the EC50 of the DHT by a factor of 2, Schild regression, HALP2 cells

EC50 [nM] | KSchild (nM) potency [1] [nM] | SMILES | KSchild (nM) potency [nM]
25.3 | 15.49 | C#CCN1C(=S)N(c2ccc(Cl)c(Cl)c2)C(=O)C1(C)c1ccc(O)cc1 (centres unmarked) [Example 41, 1-(3,4-dichlorophenyl)-4-(4-hydroxyphenyl)-4-methyl-3-(2-propynyl)-2-thioxoimidazolidin-5-one] | 
42.4 | 42.43 | COc1cccc(C2C(=O)N(c3ccc(Cl)c(Cl)c3)C(=O)N2C)c1 (centres unmarked) [Example 151, 1-(3,4-dichlorophenyl)-4-(3-methoxyphenyl)-3-methylimidazolidine-2,5-dione] | 
 |  | C#CCN1C(=O)N(c2ccc(C#N)c(C(F)(F)F)c2)C(=O)[C@@]1(C)c1ccc(OC)cc1 [Example 154.1, (R)-4-[2,5-dioxo-4-(4-methoxyphenyl)-4-methyl-3-(2-propynyl)imidazolidin-1-yl]-2-trifluoromethylbenzonitrile] | 15
 |  | O=C1C(c2ccc(O)cc2)N(CCO)C(=O)N1c1ccc([N+](=O)[O-])c(C(F)(F)F)c1 (centres unmarked) [Example 138] | 600
15 | 15 | O=C1C(c2ccc(O)cc2)N(Cc2ccsc2)C(=O)N1c1ccc(F)c(Cl)c1 (centres unmarked) [Example 51] | 
 |  | C#CCN1C(=O)N(c2ccc(Cl)c(C(F)(F)F)c2)C(=O)C1c1ccc(O)cc1 (centres unmarked) [Example 68] | 24.49
69.3 | 69.28 | CCCN1C(=O)N(c2cccc(C(F)(F)F)c2)C(=O)C1c1ccc(O)cc1 (centres unmarked) [Example 59] | 
94.9 | 77.46 | CCOC(=O)CCN1C(=O)N(c2ccc(F)c(C(F)(F)F)c2)C(=O)C1c1ccc(O)cc1 (centres unmarked) [Example 78] | 
 |  | CC1(c2ccc(O)cc2)C(=O)N(c2ccc(C#N)c(C(F)(F)F)c2)C(=O)N1CC#N (centres unmarked) [Example 237, 4-[3-(cyanomethyl)-2,5-dioxo-4-(4-hydroxyphenyl)-4-methylimidazolidin-1-yl]-2-trifluoromethylbenzonitrile] | 8
 |  | CC1(c2ccc(O)cc2)C(=O)N(c2ccc(C#N)c(C(F)(F)F)c2)C(=O)N1CCCCO (centres unmarked) [Example 24, 4-[2,5-dioxo-3-(4-hydroxybutyl)-4-(4-hydroxyphenyl)-4-methylimidazolidin-1-yl]-2-trifluoromethylbenzonitrile] | 15
 |  | CCCC1(c2ccc(OC)cc2)C(=O)N(c2ccc(C#N)c(C(F)(F)F)c2)C(=O)N1C (centres unmarked) [Example 166.1, 4-[2,5-dioxo-4-(4-methoxyphenyl)-3-methyl-4-propylimidazolidin-1-yl]-2-trifluoromethylbenzonitrile] | 400
 |  | C=CCN1C(=O)N(c2ccc([N+](=O)[O-])c(C(F)(F)F)c2)C(=O)C1c1ccc(O)cc1 (centres unmarked) [Example 13, 1-(4-nitro-3-trifluoromethylphenyl)-4-(4-hydroxyphenyl)-3-(2-propenyl)imidazolidine-2,5-dione] | 122.47
42.4 | 42.43 | C#CCN1C(=O)N(c2ccc(F)c(C(F)(F)F)c2)C(=O)C1c1ccc(O)cc1 (centres unmarked) [Example 69] | 
 |  | CCOCCCN1C(=O)N(c2ccc([N+](=O)[O-])c(C(F)(F)F)c2)C(=O)C1c1ccc(O)cc1 (centres unmarked) [Example 83] | 565.69
 |  | C#CCN1C(=O)N(c2ccc([N+](=O)[O-])cc2)C(=O)C1c1ccc(O)cc1 (centres unmarked) [Example 73] | 13.77
 |  | CCCN1C(=O)N(c2ccc(C#N)c(C(F)(F)F)c2)C(=O)C1c1ccc(O)cc1 (centres unmarked) [Example 60] | 21.21
 |  | COc1ccc([C@]2(C)C(=O)N(c3ccc(C#N)c(C(F)(F)F)c3)C(=O)N2C)cc1 [Example 153, (R)-4-[3,4-dimethyl-2,5-dioxo-4-(4-methoxyphenyl)imidazolidin-1-yl]-2-trifluoromethylbenzonitrile] | 5.66
94.9 | 94.87 | N#CCN1C(=O)N(c2ccc(Cl)c(Cl)c2)C(=O)C1c1ccc(O)cc1 (centres unmarked) [Example 91] | 
12.3 | 12.25 | CC1(c2ccc(O)cc2)C(=O)N(c2ccc(Cl)c(Cl)c2)C(=O)N1CC#CCO (centres unmarked) [Example 242, 1-(3,4-dichlorophenyl)-3-(4-hydroxy-2-butynyl)-4-(4-hydroxyphenyl)-4-methylimidazolidine-2,5-dione] | 
141 | 141.42 | O=C1C(c2ccc(O)cc2)N(CCO)C(=O)N1c1ccc(F)c(C(F)(F)F)c1 (centres unmarked) [Example 142] | 
300 | 300 | CCOCCCN1C(=O)N(c2ccc(F)c(F)c2)C(=O)C1c1ccc(O)cc1 (centres unmarked) [Example 85] | 
200 | 200 | O=C1C(c2ccc(O)cc2)N(Cc2ccc3c(c2)OCO3)C(=O)N1c1cccc(C(F)(F)F)c1 (centres unmarked) [Example 104] | 
42.4 | 30 | N#CCCN1C(=O)N(c2ccc(Cl)c(Cl)c2)C(=O)C1c1ccc(O)cc1 (centres unmarked) [Example 123] | 
3.46 | 1.41 | C=CCN1C(=S)N(c2ccc(Cl)c(Cl)c2)C(=O)C1(C)c1ccc(O)cc1 (centres unmarked) [Example 40, 1-(3,4-dichlorophenyl)-4-(4-hydroxyphenyl)-4-methyl-3-(2-propenyl)-2-thioxoimidazolidin-5-one] | 
 | 0.37 | CN1C(=O)N(c2ccc(Cl)c(Cl)c2)C(=O)C1(CO)c1ccc(O)cc1 (centres unmarked) [Example 190, 1-(3,4-dichlorophenyl)-4-hydroxymethyl-4-(4-hydroxyphenyl)-3-methylimidazolidine-2,5-dione] | 
300 | 300 | N#CCN1C(=O)N(c2ccc(F)c(C(F)(F)F)c2)C(=O)C1c1ccc(O)cc1 (centres unmarked) [Example 94] | 
69.3 | 69.28 | CCOC(=O)CCN1C(=O)N(c2ccc(F)c(Cl)c2)C(=O)C1c1ccc(O)cc1 (centres unmarked) [Example 79] | 
24.5 | 17.32 | CCOCCCN1C(=O)N(c2ccc(Cl)c(Cl)c2)C(=O)C1c1ccc(O)cc1 (centres unmarked) [Example 84] | 

SMILES | EC50 [nM] | KSchild (nM) potency [1] [nM] | KSchild (nM) potency [nM]
Cc1cc([N+](=O)[O-])ccc1N1C(=O)N(C)C(C)(c2ccc(O)cc2)C1=O (centres unmarked) [Example 26, 3,4-dimethyl-4-(4-hydroxyphenyl)-1-(2-methyl-4-nitro-phenyl)imidazolidine-2,5-dione] |  | 20 | 
C=CCN1C(=O)N(c2ccc(C#N)c(C(F)(F)F)c2)C(=O)C1(C)c1ccc(O)cc1 (centres unmarked) [Example 23, 4-[2,5-dioxo-4-(4-hydroxyphenyl)-4-methyl-3-(2-propenyl)imidazolidin-1-yl]-2-trifluoromethylbenzonitrile] |  | 2 | 
CC1(c2ccc(O)cc2)C(=O)N(c2ccc(C#N)c(C(F)(F)F)c2)C(=O)N1C1CCCC1 (centres unmarked) [Example 24.2, 4-[3-cyclopentyl-2,5-dioxo-4-(4-hydroxyphenyl)-4-methylimidazolidin-1-yl]-2-trifluoromethylbenzonitrile] |  | 20 | 
